Test results from ChEMBL document CHEMBL3045919, “Disease-controlling effect of a novel fungicide pyribencarb against Botrytis cinerea” (J Pestic Sci, 2010).
≈ marks a conversion by molar mass, not a printed value. Calls of active or inactive are those of the source. No cut-off for these calls is given here.

Legend:
Botrytis cinerea [1] = test: Antifungal activity against Botryotinia fuckeliana in Cucumber seedlings assessed as reduction of gray mold diseases compound spraying was performed 3 hr prior to inoculation by preventive effect assay; format: functional, organism-based
Botrytis cinerea [2] = test: Antifungal activity against Botryotinia fuckeliana in Cucumber seedlings assessed as reduction of gray mold diseases; format: functional, organism-based
Botrytis cinerea [3] = test: Antifungal activity against Botryotinia fuckeliana in Cucumber seedlings assessed as reduction of gray mold diseases at 3 ug/ml compound spraying was performed 24 hr after inoculation by curative effect assay; format: functional; set-up: scale not given: the % may be the effect or the level left
Botrytis cinerea [4] = test: Antifungal activity against Botryotinia fuckeliana in Cucumber seedlings assessed as reduction of gray mold diseases at 3 ug/ml compound spraying was performed 48 hr after inoculation by lesion development inhibitory assay; format: functional; set-up: scale not given: the % may be the effect or the level left
Botrytis cinerea [5] = test: Antifungal activity against Botryotinia fuckeliana in Eggplant seedlings assessed as Eggplant gray mold diseased flowers and fruits in field trials at 100 ug/ml 3 applications at 7 days intervals (reference value: 52.7%); format: functional
Botrytis cinerea [6] = test: Antifungal activity against Botryotinia fuckeliana in Cucumber seedlings cotyledon stage assessed as suppression of gray mold diseases measured after 7 days by rain fastness activity assay; format: functional, organism-based
Cucumis sativus = test: Translaminar activity against kidney bean gray mold assessed as drug transport in Phaseolus vulgaris (kidney bean) from adaxial to abaxial at 100 to 200 ug/ml measured after 3 days; format: ADME, organism-based; conditions: in vivo, 72 h
Botrytis cinerea [7] = test: Antifungal activity against Botryotinia fuckeliana in Kidney bean assessed as Kidney bean gray mold diseased pods in field trials at 200 ug/ml 3 applications at 9 days intervals (reference value: 21%); format: functional
Botrytis cinerea [8] = test: Antifungal activity against Botryotinia fuckeliana in Eggplant seedlings assessed as Eggplant gray mold diseased flowers and fruits in field trials at 200 ug/ml 3 applications at 7 days intervals (reference value: 52.7%); format: functional
Botrytis cinerea [9] = test: Antifungal activity against Botryotinia fuckeliana in Cucumber seedlings assessed as reduction gray mold diseases at 3 ug/ml compound spraying was performed 3 hr prior to inoculation by preventive effect assay; format: functional; set-up: scale not given: the % may be the effect or the level left
Botrytis cinerea [10] = test: Antifungal activity against Botryotinia fuckeliana in Kidney bean assessed as Kidney bean gray mold diseased pods in field trials at 100 ug/ml 3 applications at 9 days intervals (reference value: 21%); format: functional
Botrytis cinerea [11] = test: Antifungal activity against Botryotinia fuckeliana in Eggplant seedlings assessed as Eggplant gray mold diseased flowers and fruits in field trials at 500 ug/ml 3 applications at 7 days intervals (reference value: 52.7%); format: functional
Botrytis cinerea [12] = test: Antifungal activity against Botryotinia fuckeliana in Kidney bean assessed as Kidney bean gray mold diseased pods in field trials at 500 ug/ml 3 applications at 9 days intervals (reference value: 21%); format: functional

O=C(Nc1ccccc1-c1ccc(Cl)cc1)c1cccnc1Cl [BOSCALID]
EC50 (Botrytis cinerea [1]): 0.8 µg/mL (≈ 2.33 µM)

COC(=O)NCc1cc(/C(C)=N/OCc2cccc(C)n2)ccc1Cl [Pyribencarb]
EC50 (Botrytis cinerea [2]): 0.006 µg/mL (≈ 0.0166 µM) | MIC (Botrytis cinerea [2]): 0.1 µg/mL (≈ 0.276 µM) | Activity (Botrytis cinerea [3]): 80.4% | Activity (Botrytis cinerea [4]): 88.5% | Activity (Botrytis cinerea [5]): 9.8% | inhibition (Botrytis cinerea [6]): Active | Drug transport (Cucumis sativus): Active | Activity (Botrytis cinerea [7]): 3.7% | EC50 (Botrytis cinerea [1]): 0.55 µg/mL (≈ 1.52 µM) | Activity (Botrytis cinerea [8]): 3.4% | Activity (Botrytis cinerea [9]): 72.1% | Activity (Botrytis cinerea [10]): 5.3%

CC12CC1(C)C(=O)N(c1cc(Cl)cc(Cl)c1)C2=O (stereo not drawn) [PROCYMIDONE]
Activity (Botrytis cinerea [11]): 12.3% | Activity (Botrytis cinerea [12]): 4.6%

N#Cc1c[nH]cc1-c1cccc2c1OC(F)(F)O2 [FLUDIOXONIL]
Activity (Botrytis cinerea [8]): 16.8%

CC1(C(=O)Nc2ccc(O)c(Cl)c2Cl)CCCCC1 [FENHEXAMID]
EC50 (Botrytis cinerea [1]): 2.13 µg/mL (≈ 7.05 µM)

O=[N+]([O-])c1cc(C(F)(F)F)c(Cl)c([N+](=O)[O-])c1Nc1ncc(C(F)(F)F)cc1Cl [FLUAZINAM]
Activity (Botrytis cinerea [12]): 7.8%
